What was measured:
Test in all cases: relative viability (nuclei count vs DMSO), 5 days (fraction); higher = more cells survive
Vatalanib = compound: Clc1ccc(Nc2nnc(Cc3ccncc3)c3ccccc23)cc1 [Vatalanib]
Outline: (§1)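 After an overnight hold at 37 °C, lung cancer cell lines in 1536-well plates were pinned with five library-drug doses (not always all listed), each √10 from the next, on vehicle-anchored plates. The cells stayed 5 days without fresh medium, then a one-step fix, permeabilisation and Hoechst stain preceded 4× imaging and MetaXpress nuclear counts. A plate passed only with control CV under 25% and at least one doubling. Viability is the median, over plates, of treated-well nuclei relative to vehicle-well nuclei.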

Embelin = compound: CCCCCCCCCCCC1=C(O)C(=O)C=C(O)C1=O [Embelin]
Outline: as §1

AZ23 = compound: CC(C)Oc1cc(Nc2nc(N[C@@H](C)c3ccc(F)cn3)ncc2Cl)n[nH]1 [AZ23]
Outline: as §1

HG-5-88-01 = compound: CC(C)S(=O)(=O)C1=CC=CC=C1NC2=NC(=NC(=C2Cl)N)NC3=C(C=C(C=C3)N4CCC(CC4)C(=O)N)OC [HG-5-88-01]
Outline: as §1

[1] = compound: C[C@@H]1CN(CC(=O)Nc2ccc3c(c2)Cc2cccc(-c4cc(=O)cc(N5CCOCC5)o4)c2S3)C[C@H](C)O1
Outline: as §1

Row | Cell Line | relative viability (Vatalanib; 0.04 µM) | relative viability (Vatalanib; 0.1265 µM) | relative viability (Vatalanib; 0.4 µM) | relative viability (Vatalanib; 1.265 µM) | relative viability (Vatalanib; 4 µM) | relative viability (Embelin; 0.08 µM) | relative viability (Embelin; 0.8 µM) | relative viability (Embelin; 2.53 µM) | relative viability (Embelin; 8 µM) | relative viability (AZ23; 0.01 µM) | relative viability (AZ23; 0.03162 µM) | relative viability (AZ23; 0.3162 µM) | relative viability (HG-5-88-01; 0.04 µM) | relative viability (HG-5-88-01; 0.1265 µM) | relative viability (HG-5-88-01; 0.4 µM) | relative viability (HG-5-88-01; 1.265 µM) | relative viability (HG-5-88-01; 4 µM) | relative viability ([1]; 0.04 µM) | relative viability ([1]; 0.1265 µM) | relative viability ([1]; 0.4 µM) | relative viability ([1]; 4 µM)
1 | NCI-H2085 | 0.997 | 0.953 | 0.975 | 0.92 | 0.931 | 0.985 | 1.05 | 1.07 | 0.992 | 1.11 | 1.05 | 0.961 | 1.05 | 1.07 | 1.02 | 0.972 | 1.01 | 0.957 | 1.02 | 0.977 | 0.834
2 | NCI-H2087 | 1.18 | 0.928 | 1.08 | 0.889 | 1.09 | 1.01 | 1.22 | 1.27 | 1.05 | 1.24 | 1.21 | 0.963 | 1.16 | 0.989 | 0.916 | 1.07 | 0.746 | 1.15 | 0.912 | 1.1 | 0.948
3 | NCI-H2126 | 0.983 | 1 | 1.03 | 0.945 | 0.925 | 1.03 | 0.991 | 1.03 | 0.934 | 1.05 | 1.02 | 0.991 | 0.905 | 0.989 | 0.923 | 0.904 | 0.88 | 1.01 | 0.979 | 1 | 0.909
4 | NCI-H2170 | 1.03 | 0.979 | 0.997 | 0.987 | 0.944 | 0.981 | 1.01 | 1.09 | 0.919 | 1.07 | 0.977 | 1.2 | 0.977 | 1.02 | 0.899 | 0.706 | 1.01 | 0.989 | 0.997 | 0.985 | 0.888
5 | NCI-H2228 | 0.988 | 0.902 | 1.15 | 1.09 | 0.975 | 1 | 0.946 | 1.08 | 1.02 | 1.16 | 1.1 | 0.868 | 0.725 | 0.588 | 0.371 | 0.3 | 0.345 | 0.941 | 0.937 | 0.909 | 0.625
6 | NCI-H2342 | 1 | 0.913 | 0.97 | 1.03 | 0.975 | 0.894 | 1.02 | 1.15 | 0.898 | 0.993 | 0.942 | 1.02 | 0.759 | 1.1 | 0.93 | 0.728 | 1.05 | 1.01 | 0.847 | 0.83 | 0.786
7 | NCI-H2347 | 1.09 | 1.01 | 1.02 | 0.961 | 0.938 | 0.987 | 1.09 | 1.09 | 1.03 | 1.12 | 1.16 | 0.997 | 1.04 | 1.02 | 1.07 | 0.94 | 1.01 | 1.1 | 1.08 | 1.08 | 0.981
8 | NCI-H2405 | 1.01 | 0.919 | 0.732 | 0.919 | 0.946 | 1.09 | 1.09 | 0.993 | 0.921 | 0.982 | 1.09 | 0.911 | 1.03 | 1 | 0.925 | 0.802 | 0.901 | 1.09 | 1.05 | 0.972 | 0.983
9 | NCI-H3122 | 1.01 | 0.975 | 1.02 | 0.959 | 0.98 | 0.986 | 1.05 | 1.01 | 1.07 | 1.12 | 1.13 | 1.06 | 0.865 | 0.585 | 0.254 | 0.236 | 0.169 | 1.05 | 0.993 | 1.03 | 0.883
10 | PC-3 [JPC-3] | 0.974 | 0.984 | 1 | 1.01 | 0.988 | 1.08 | 1.05 | 1.11 | 0.974 | 1.08 | 1.12 | 1.04 | 1.08 | 1.05 | 0.998 | 0.749 | 0.477 | 0.976 | 1.01 | 1.03 | 0.986
11 | PC-14 | 1.01 | 0.921 | 0.905 | 0.904 | 0.958 | 0.997 | 1.15 | 1 | 1.06 | 0.748 | 1.22 | 1.08 | 1.05 | 0.985 | 0.901 | 0.735 | 0.38 | 1 | 0.943 | 1.02 | 0.863
12 | RERF-LC-KJ | 1.02 | 0.961 | 1.04 | 0.857 | 0.857 | 0.978 | 1.01 | 1.07 | 1 | 1.08 | 0.987 | 1.03 | 1.05 | 0.992 | 0.975 | 0.865 | 0.724 | 1.01 | 1.01 | 0.962 | 0.872
13 | SK-LU-1 | 1.09 | 0.993 | 1.14 | 1.04 | 1.05 | 1.13 | 1.19 | 1.26 | 0.928 | – | 1.14 | 1.08 | 0.982 | 1.04 | 0.998 | 0.876 | 0.708 | 1.04 | 1.04 | 1.1 | 0.853
14 | SK-MES-1 | 1.03 | 0.913 | 1.09 | 0.971 | 0.893 | 1.02 | 1.07 | 1.13 | 0.954 | 0.745 | 1.08 | 1.08 | 0.983 | 0.962 | 0.966 | 0.924 | 1.05 | 1.09 | 1.05 | 0.923 | 0.8
15 | SW 900 | 0.698 | 0.807 | 1.07 | 0.737 | 1.03 | 0.866 | 0.954 | 1.01 | 0.581 | 0.764 | 0.635 | 0.883 | 0.901 | 0.881 | 0.86 | 0.888 | 0.497 | 0.854 | 0.899 | 0.954 | 0.708
16 | SW 1573 | 0.957 | 0.995 | 1.19 | 0.868 | 1.03 | 0.972 | 1.33 | 1.16 | 1.02 | 1.15 | 1.16 | 0.881 | 0.962 | 0.978 | 0.969 | 0.834 | 0.864 | 0.992 | 1.04 | 0.922 | 1.06
17 | UMC-11 | 1 | 0.953 | 0.954 | 0.984 | 1.03 | 0.987 | 1.07 | 1.02 | 0.974 | 0.954 | 1.01 | 0.968 | 0.887 | 1.02 | 0.843 | 0.943 | 0.807 | 0.969 | 0.938 | 1.01 | 0.865
